Target: T1, Yarrowia lipolytica F1Fo-ATP synthase (YF1Fo), monomeric (Yarrowia lipolytica, UniProt Q6C326+Q6C338+Q6CFT7)
T1 construct: gene ATP1; complete, genetically unmodified native F1Fo holoenzyme, monomeric form, solubilised in DDM from Y. lipolytica mitochondria; PEG precipitation, glycerol gradient, anion exchange; remaining Fo and peripheral stalk subunits also present; with ATP synthase subunit delta, mitochondrial; ATP synthase subunit epsilon, mitochondrial; ATP synthase subunit 9, mitochondrial (subunit c); ATP synthase subunit a
Test: malachite green ATP hydrolysis assay
Assay type: biochemical

T1 sequence (Q6C326 25-536): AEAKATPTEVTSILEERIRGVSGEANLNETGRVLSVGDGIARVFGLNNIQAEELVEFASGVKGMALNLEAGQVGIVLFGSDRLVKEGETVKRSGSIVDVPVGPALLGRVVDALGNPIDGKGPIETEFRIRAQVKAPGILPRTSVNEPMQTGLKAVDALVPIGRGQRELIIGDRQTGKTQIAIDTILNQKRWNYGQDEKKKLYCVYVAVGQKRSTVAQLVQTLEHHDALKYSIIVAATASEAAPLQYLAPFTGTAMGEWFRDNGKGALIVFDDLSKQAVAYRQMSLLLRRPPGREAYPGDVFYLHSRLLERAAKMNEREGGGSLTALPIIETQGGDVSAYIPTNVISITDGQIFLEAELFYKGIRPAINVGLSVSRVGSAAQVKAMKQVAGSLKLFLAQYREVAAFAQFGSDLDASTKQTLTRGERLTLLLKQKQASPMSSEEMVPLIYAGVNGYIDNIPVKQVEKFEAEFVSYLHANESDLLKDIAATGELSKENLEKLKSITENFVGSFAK
T1 sequence (Q6CFT7 33-509): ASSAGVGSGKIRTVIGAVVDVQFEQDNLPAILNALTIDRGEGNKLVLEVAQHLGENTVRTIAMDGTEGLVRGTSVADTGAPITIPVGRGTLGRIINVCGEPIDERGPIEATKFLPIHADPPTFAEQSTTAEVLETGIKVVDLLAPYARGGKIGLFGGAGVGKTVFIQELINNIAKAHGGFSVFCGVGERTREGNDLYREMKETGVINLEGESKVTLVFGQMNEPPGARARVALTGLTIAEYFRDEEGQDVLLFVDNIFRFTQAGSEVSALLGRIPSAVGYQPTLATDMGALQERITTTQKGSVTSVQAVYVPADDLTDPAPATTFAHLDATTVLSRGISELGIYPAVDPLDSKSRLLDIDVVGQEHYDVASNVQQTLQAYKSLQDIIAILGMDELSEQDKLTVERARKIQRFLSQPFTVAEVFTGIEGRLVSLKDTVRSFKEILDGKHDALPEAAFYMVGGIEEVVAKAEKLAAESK
T1 sequence (Q6C338 22-293): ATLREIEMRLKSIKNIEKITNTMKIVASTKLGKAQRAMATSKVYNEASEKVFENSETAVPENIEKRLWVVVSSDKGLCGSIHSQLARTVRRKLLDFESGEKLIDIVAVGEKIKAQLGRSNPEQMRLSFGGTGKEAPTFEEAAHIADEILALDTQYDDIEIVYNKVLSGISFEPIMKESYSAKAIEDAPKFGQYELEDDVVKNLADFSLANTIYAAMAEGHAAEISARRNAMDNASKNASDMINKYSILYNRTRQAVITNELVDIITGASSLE
T1 sequence (Q6C877 25-162 partner): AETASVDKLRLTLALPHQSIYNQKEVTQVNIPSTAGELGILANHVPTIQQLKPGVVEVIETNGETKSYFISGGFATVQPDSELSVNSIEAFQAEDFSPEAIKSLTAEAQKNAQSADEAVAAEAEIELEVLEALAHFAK
T1 sequence (Q37695 whole entry partner): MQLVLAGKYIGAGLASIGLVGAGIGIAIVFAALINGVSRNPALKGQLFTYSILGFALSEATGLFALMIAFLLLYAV

SMILES	IC50 [µM]
COc1cc(/N=N/c2ccc(O)cc2)cc(OC)c1 [PIAS-2, 4‐((3,5‐dimethoxyphenyl)diazenyl)phenol]	> 200
COc1cc(/N=N/c2ccc(O)c(OC)c2)cc(OC)c1 [PIAS-3, 4‐((3,5‐dimethoxyphenyl)diazenyl)‐2‐methoxyphenol]	> 200
Oc1ccc(/C=C/c2cc(O)cc(O)c2)cc1 [resveratrol]	185 ± 17.7

Now those with a lower IC50, led by results:

IC50 [µM]	SMILES
140 ± 56.6	Oc1ccc(/N=N/c2cc(O)cc(O)c2)cc1 [PIAS-1, 5‐((4‐hydroxyphenyl)diazenyl)benzene‐1,3‐diol]
14 ± 2.7	Oc1cc(O)cc(/N=N/c2ccc(O)c(O)c2)c1 [PIAS-4, 4‐((3,5‐dihydroxyphenyl)diazenyl)benzene‐1,2‐diol]

From article PMC6175411, “Reversible optical control of F1Fo‐ATP synthase using photoswitchable inhibitors” (Febs Letters, 2018)
